Assay results published in patent US20150366962A1 (priority 2014, published 2015).

How the values were obtained:
PR/8 virus / PR/8 HA = assay: Long-term memory response after rPR/8 HA: HAI titers, B cell and IFN-γ ELISpot; assay type: in vivo, BALB/c mice
Method: (A) BALB/c mice were i.m. immunized with rPR/8 HA (5 μg/animal) on day 0 with the indicated adjuvant or vehicle, and sera were collected every 3 weeks (red drops). (B) Levels of antigen-specific total IgG were measured by ELISA. (C) The serum HAI titer to PR/8 virus was assayed at 6 weeks after immunization, with a detection limit of 1:40 serum dilution; nd, not detectable. (D and E) Eighteen weeks after immunization, mice (n=5/group) were administered 10 mLD50 of PR/8 virus and monitored for morbidity, as measured by body weight loss (D), and mortality (E) induced by the viral challenge. […]
AddaVax was used at a 1:1 ratio with antigen in PBS. […] IFN-γ spot-forming cells were detected with the IFN-γ ELISpot ALP kit (3321-2A; Mabtech, Cincinnati, Ohio). Antigen specific B cells from splenocytes were quantified 5 days after reexposure to antigen (5 μg of rPR/8HAin PBS only administered i.m.) by plating them on ELISpot plates coated with rPR/8 protein (Strep tag purified) for 20 h, and detection of secreted antibody was performed with an anti-mouse IgG secondary antibody conjugated to horseradish peroxidase (HRP).
Anti-OVA antibodies of the IgG subclasses IgG1 and IgG2c were measured by ELISA. Each ELISA plate contained a titration of a previously quantitated serum to generate a standard curve. […] Total IgG, IgG1, and IgG2a were detected.

[1] = system: rHA derived from A/California/04/2009 (pH1N1); assay: rHA (Cal/09) immunization: serum IgG ELISA; assay type: in vivo, BALB/c mice; conditions: 5 μg Cal/09 rHA, 3 weeks after immunization
recombinant PR8 HA = assay: T cell response to head and stalk segments of PR8 HA (IFNγ ELISpot or ELISA); assay type: in vivo, Balb/c mice; conditions: two immunizations two weeks apart, 6 weeks after the first
[2] = system: human umbilical vein cells (HUVEC); assay: Chemokine induction in HUVEC; assay type: cell-based
Method: TLR7 expression in humans is limited to plasmacytoid DC and B cells, and different from the expression in mice. Conversely, TLR4 is abundantly expressed in different cell types in humans and mice. Thus, experiments were performed to determine whether 1Z105 and 1V270 could stimulate human umbilical vein cells (HUVEC) and myeloid dendritic cells.

[3] = system: rHA derived from A/Vietnam/1203/2004 (VN/04); design: species or system BALB/c mice; conditions: mouse, in vivo
rCal/09 HA = assay: Cross-reactive serum IgG to Cal/09 HA after rPR/8 HA immunization; assay type: in vivo, BALB/c mice; conditions: for heteroreactive serum IgG titers versus unadjuvanted protein alone: 5 μg rPR/8 HA, rCal/09 HA substrate, 3 weeks
OVA = OVA immunization: anti-OVA IgG1 and IgG2c by ELISA; assay type: in vivo, C57BL/6 mice; conditions: i.m. OVA 20 μg plus adjuvant, sera day 35
[4] = system: A/Brisbane/59/2007 (H1N1), A/Uruguay/716/2007 (H3N2), B/Brisbane/60/2008; assay: Fluzone immunization: serum IgG to the vaccine's viral components; assay type: in vivo, BALB/c mice; conditions: 50 ng/HA 2009-2010 Fluzone, 3 weeks
[5] = Histological examination for reactogenicity (H&E, injected muscle); assay type: in vivo, BALB/c mice; conditions: for inflammation at the site of injection and systemically in comparison to AddaVax: 24 h after i.m. injection; for cellular infiltration in injected muscle (H&E): i.m. without antigen, 24 h after injection
Text: Scale bars, 100 μm. […] The error bars indicate SEM.
Twenty-four hours after injection, muscle tissues at the injection sites and sera were harvested. The muscles were fixed in 10% buffered formalin and embedded in paraffin. Sections 5 μm thick were stained with hematoxylin and eosin (H&E) and examined under a microscope.

[6] = system: A/Puerto Rico/8/1934(H1N1); design: species or system BALB/c mice; conditions: mouse, in vivo
OT-II splenocytes = assay: Intracellular IFNγ in CD4 T cells of OT-II splenocytes; assay type: cell-based, mice; conditions: for intracellular IFNγ expressing CD4 T cells: alone, OVA323-339, 3 days
Method: To evaluate whether 1Z105 can enhance the proinflammatory cytokine induction by 1V270, BMDC (C57BL/6) were incubated with 1V270 (0.025, or 0.1 μM) in the presence or absence of 1Z105 (5 μM). […] Antigen presenting function was evaluated using splenocytes prepared from OVA MHC class II-restricted alpha beta T cell receptor (TCR) transgenic mice OT-II. Splenocytes were cultured with OVA peptide (OVA323-339) for 3 days with 1Z105, or 1V270 alone or in combination. The frequency of intracellular (IC) IFNγ expressing CD4 T cells was determined by flow cytometric assay. Treatment with 1V270 alone increased intracellular IFNγ (3.7 and 6.8% by 25 and 100 nM, respectively).

| SMILES | IgG seroresponse [1] | T cell response against the head segment (pool 1-2) of HA (recombinant PR8 HA) | induction of chemokines MCP-1 and IL-8 [2] | IgG seroresponse [3] | heteroreactive serum IgG titers versus unadjuvanted protein alone (rCal/09 HA) | serum anti-OVA IgG1 titers versus OVA alone (OVA) | seroresponse to the three viral components of Fluzone (ELISA) [4] | inflammation at the site of injection and systemically in comparison to AddaVax [5] | cellular infiltration in injected muscle (H&E) [5] | mortality [6] | survival after the lethal challenge [6] [%] | weight loss [6] | also measured |
| --- | --- | --- | --- | --- | --- | --- | --- | --- | --- | --- | --- | --- | --- |
| Cn1c2ccccc2c2nc(SCC(=O)NC3CCCCC3)n(-c3ccccc3)c(=O)c21 [Compound 1Z105] | enhanced | highly induced T cell response | induced the chemokines MCP-1, and IL-8 | enhanced | significantly higher | significantly higher | enhanced the seroresponse to all three viral components | minimal inflammation | minimal cellular infiltration | provided protective efficacy | 100 | significantly reduced weight loss | fold increase in HAI titer induced by the boost (PR/8 virus / PR/8 HA; 5 days after reexposure versus preboost): significant only in the 1Z105 group; subtypes of cross-reactive antibodies (IgG2a/IgG1) (rCal/09 HA; antibodies cross-reactive to Cal/09 HA): produced predominately IgG1; mortality compared to no-adjuvant control receiving 5 μg of rHA [6]: significantly minimized; frequency of IFNγ-producing cells (OT-II splenocytes; 1Z105 in combination with 1V270): additively increased |
| CCCCCCCCC=CCCCCCCCC(=O)OCC(COP(=O)(O)OCCNC(=O)c1ccc(Cn2c(=O)[nH]c3c(N)nc(OCCOC)nc32)cc1)OC(=O)CCCCCCCC=CCCCCCCCC (stereo not shown) [Compound 1V270] | enhanced | highly induced T cell response | minimal effects | enhanced | significantly higher | did not induce IgG1 comparably to 1Z105 | enhanced the seroresponse to all three viral components | minimal inflammation | minimal cellular infiltration | provided protective efficacy | 100 | significantly reduced weight loss | antigen-specific IFN-γ-producing T cells (ELISpot) (PR/8 virus / PR/8 HA; splenocytes 6 months after immunization, PR/8 HA peptide pool overnight): induced antigen-specific IFN-γ T cells that were long lived; stalk-specific (pool 3-4) T cell responses (recombinant PR8 HA): also induced stalk-specific (pool 3-4) T cell responses; serum anti-OVA IgG2c titers versus OVA alone (OVA): significantly higher IgG2c titers; weight loss compared to AddaVax [6]: restricted weight loss compared to AddaVax; intracellular IFNγ expressing CD4 T cells (OT-II splenocytes; 25 nM): 3.7%; intracellular IFNγ expressing CD4 T cells (OT-II splenocytes; 100 nM): 6.8% |
